Assay results published in patent US20120088746A1, “AMIDE DERIVATIVES AS ION-CHANNEL LIGANDS AND PHARMACEUTICAL COMPOSITIONS AND METHODS OF USING THE SAME” (PFIZER INC., priority 2006, published 2012).
Structures can show the parent of a compound that is named as a salt.

target: human VR1 (Homo sapiens, UniProt Q8NER1); assay: Acid stimulation assay (acid-induced intracellular calcium change, FDSS 6000); assay type: cell-based; details: final assay buffer pH5.8, 15 min pre-incubation, read-out: IC50 (nM) Low pH
Description: VR1 antagonistic activity can be determined by the Ca^2+ imaging assay using human VR1 highly expressing cells. The cells that highly express human VR1 receptors are obtainable from several different conventional methods. The one standard method is cloning from human Dorsal Root Ganglion (DRG) or kidney according to the methods such as described in the journal article; Nature, 389, pp 816-824, 1997. Alternatively VR1 receptors highly expressing human keratinocytes are also known and published in the journal article (Biochemical and Biophysical Research Communications, 291, pp 124-129, 2002). […] Furthermore, the method to up regulate human VR1 gene, which is usually a silent gene or don't produce detectable level of VR1 receptors, is also available to obtain propriety cells. Such genetic modification method was described in detail; Nat. Biotechnol., 19, pp 440-445, 2001.
The cells that express human VR1 receptors were maintained in culture flask at 37° C. in an environment containing 5% CO2 until use in the assay. The intracellular Ca^2+ imaging assay to determine VR1 antagonistic activities were done by following procedures.
The culture medium was removed from the flask and fura-2/AM fluorescent calcium indicator was added to the flask at a concentration of 5 μM in the medium. The flask was placed in CO2 incubator and incubated for 1 hour. Then the cells expressing the human VR1 receptors were detached from the flask follow by washing with phosphate buffer saline, PBS(−) and re-suspended in assay buffer. The 80 tit of aliquot of cell suspension (3.75×10^5 cells/ml) was added to the assay plate and the cells were spun down by centrifuge (950 rpm, 20° C., 3 minutes).
(§1) The Acid-induced changes in the intracellular calcium concentration were monitored using FDSS 6000 (Hamamatsu Photonics, Japan), a fluorometric imaging system. The cell suspension in resting buffer (HBSS supplemented with 10 mM HEPES, pH 7.4) were pre-incubated with varying concentrations of the test compounds or resting buffer (buffer control) for 15 minutes at room temperature under the dark condition. The cells were automatically added the stimulating solution (HBSS supplemented with MES, final assay buffer pH5.8) by the FDSS 6000.
as §1, with “7.4) was” for “7.4) were”, “under” for “under the”, “dark conditions.” for “dark condition.”, “added to” for “added”

human VR1, sequence (Q8NER1 whole entry): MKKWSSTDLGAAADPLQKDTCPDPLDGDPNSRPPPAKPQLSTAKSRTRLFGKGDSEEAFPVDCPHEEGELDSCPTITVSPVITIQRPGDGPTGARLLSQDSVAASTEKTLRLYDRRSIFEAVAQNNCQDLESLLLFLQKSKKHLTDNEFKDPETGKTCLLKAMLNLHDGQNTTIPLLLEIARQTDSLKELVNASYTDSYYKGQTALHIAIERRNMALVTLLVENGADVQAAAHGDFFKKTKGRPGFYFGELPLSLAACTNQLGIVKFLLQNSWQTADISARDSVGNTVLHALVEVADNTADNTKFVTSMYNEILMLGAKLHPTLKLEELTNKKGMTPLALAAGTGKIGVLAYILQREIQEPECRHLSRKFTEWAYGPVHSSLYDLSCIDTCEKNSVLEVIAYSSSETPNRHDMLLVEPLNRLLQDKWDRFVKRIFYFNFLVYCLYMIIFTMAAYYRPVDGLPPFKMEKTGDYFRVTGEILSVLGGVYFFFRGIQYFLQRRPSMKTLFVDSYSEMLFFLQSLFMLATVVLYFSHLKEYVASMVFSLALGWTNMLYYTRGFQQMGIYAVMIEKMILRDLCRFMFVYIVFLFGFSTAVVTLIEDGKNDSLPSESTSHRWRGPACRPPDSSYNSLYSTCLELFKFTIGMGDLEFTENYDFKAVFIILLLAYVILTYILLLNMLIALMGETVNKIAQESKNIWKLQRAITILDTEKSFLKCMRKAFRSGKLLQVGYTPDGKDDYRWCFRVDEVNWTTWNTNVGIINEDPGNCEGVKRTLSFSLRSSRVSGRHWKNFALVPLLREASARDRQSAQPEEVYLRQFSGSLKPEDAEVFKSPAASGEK

| SMILES | IC50 |
| --- | --- |
| Cc1cc([C@@H](C)NC(=O)c2ccc3cc(C(C)(C)C)ccc3c2)ccc1NS(C)(=O)=O [Example 1, 6-TERT-BUTYL-N-((1R)-1-{3-METHYL-4-[(METHYLSULFONYL)AMINO]PHENYL}ETHYL)-2-NAPHTHAMIDE] | 3 nM |
| Cc1nc([C@@H](C)NC(=O)c2ccc3cc(C(C)(C)C)ccc3c2)ccc1NS(C)(=O)=O [Example 2, 6-TERT-BUTYL-N-((1R)-1-{6-METHYL-5-[(METHYLSULFONYL)AMINO]PYRIDIN-2-YL}ETHYL)-2-NAPHTHAMIDE] | 4 nM |
| C[C@@H](NC(=O)c1ccc2cc(C(F)(F)F)ccc2n1)c1cc(F)c(NS(C)(=O)=O)c(F)c1 [Example 3, ((1R)-1-{3,5-DIFLUORO-4-[(METHYLSULFONYL)AMINO]PHENYL}ETHYL)-6-(TRIFLUORO-METHYL)QUINOLINE-2-CARBOXAMIDE] | 4 nM |
| Cc1cc([C@@H](C)NC(=O)c2cnc3cc(C(F)(F)F)ccc3c2)ccc1NS(C)(=O)=O [Example 4, (1R)-1-{3-METHYL-4-[(METHYLSULFONYL)AMINO]PHENYL}ETHYL)-7-(TRIFLUOROMETHYL)QUINOLINE-3-CARBOXAMIDE] | 100 nM |
| C[C@@H](NC(=O)c1ccc2cc(C(C)(C)C)ccc2n1)c1cc(F)c(NS(C)(=O)=O)c(F)c1 [Example 7, 6-TERT-BUTYL-N-((1R)-1-{3,5-DIFLUORO-4-[(METHYLSULFONYL)AMINO]PHENYL}-ETHYL)QUINOLINE-2-CARBOXAMIDE] | 1 nM |
| Cc1cc([C@@H](C)NC(=O)c2ccc3cc(C(C)C)ccc3n2)ccc1NS(C)(=O)=O [Example 9, 6-ISOPROPYL-N-((1R)-1-{3-METHYL-4-[(METHYLSULFONYL)AMINO]PHENYL}ETHYL)-QUINOLINE-2-CARBOXAMIDE] | 714 nM |
| Cc1cc([C@@H](C)NC(=O)c2cnc3cc(C(F)(F)F)ccc3c2C)ccc1NS(C)(=O)=O [Example 11, 4-METHYL-N-((1R)-1-{3-METHYL-4-[(METHYLSULFONYL)AMINO]PHENYL}ETHYL)-7-(TRIFLUOROMETHYL)QUINOLINE-3-CARBOXAMIDE] | 240 nM |
| Cc1cc([C@@H](C)NC(=O)c2ccc3cc(Br)ccc3n2)ccc1NS(C)(=O)=O [Example 12, 6-BROMO-N-((1R)-1-{3-METHYL-4-[(METHYLSULFONYL)AMINO]PHENYL}ETHYL)-QUINOLINE-2-CARBOXAMIDE] | 444 nM |
| Cc1cc([C@@H](C)NC(=O)c2ccc3cc(C(C)(C)C)ccc3c2)c(F)cc1NS(C)(=O)=O [Example 13, 6-TERT-BUTYL-N-((1R)-1-{2-FLUORO-5-METHYL-4-[(METHYLSULFONYL)AMINO]PHENYL}-ETHYL)-2-NAPHTHAMIDE] | 127 nM |
| Cc1cc([C@@H](C)NC(=O)c2ccc3cc(C(C)(C)C)ccc3n2)c(F)cc1NS(C)(=O)=O [Example 14, 6-TERT-BUTYL-N-((1R)-1-{2-FLUORO-5-METHYL-4-[(METHYLSULFONYL)AMINO]PHENYL}-ETHYL)QUINOLINE-2-CARBOXAMIDE] | 288 nM |
| C[C@@H](NC(=O)c1ccc2nc(C(C)(C)C)ccc2c1)c1cc(F)c(NS(C)(=O)=O)c(F)c1 [Example 15, 2-TERT-BUTYL-N-((1R)-1-{3,5-DIFLUORO-4-[(METHYLSULFONYL)AMINO]PHENYL}ETHYL)-QUINOLINE-6-CARBOXAMIDE HYDROCHLORIDE] | 24 nM |
| Cc1cc([C@@H](C)NC(=O)c2ccc3cc(C(C)(C)O)ccc3n2)ccc1NS(C)(=O)=O [Example 16] | 71 nM |
| Cc1cc([C@@H](C)NC(=O)c2ccc3cc(Br)ccc3c2)ccc1NS(C)(=O)=O [Example 17, 6-BROMONAPHTHALENE-2-CARBOXYLIC ACID [(R)-1-(4-METHANESULFONYLAMINO-3-METHYLPHENYL)ETHYL]AMIDE] | 14 nM |
| Cc1cc([C@@H](C)NC(=O)c2ccc3cc(F)ccc3c2)ccc1NS(C)(=O)=O [Example 18, 6-FLUORONAPHTHALENE-2-CARBOXYLIC ACID [(R)-1-(4-METHANESULFONYL-AMINO-3-METHYLPHENYL)ETHYL]AMIDE] | 83 nM |
| Cc1cc([C@@H](C)NC(=O)c2ccc3ccccc3c2)ccc1NS(C)(=O)=O [Example 19, NAPHTHALENE-2-CARBOXYLIC ACID [(R)-1-(4-METHANESULFONYLAMINO-3-METHYLPHENYL)ETHYL]AMIDE] | 63 nM |
| COc1ccc2cc(C(=O)N[C@H](C)c3ccc(NS(C)(=O)=O)c(C)c3)ccc2c1 [Example 20, 6-METHOXYNAPHTHALENE-2-CARBOXYLIC ACID [(R)-1-(4-METHANESULFONYL-AMINO-3-METHYLPHENYL)ETHYL]AMIDE] | 8 nM |
| Cc1cc([C@@H](C)NC(=O)c2ccc3cc(N4CCCC4)ccc3c2)ccc1NS(C)(=O)=O [Example 21, 6-PYRROLIDIN-1-YL-NAPHTHALENE-2-CARBOXYLIC ACID [(R)-1-(4-METHANESULFONYL-AMINO-3-METHYLPHENYL)ETHYL]AMIDE] | 44 nM |
| Cc1cc([C@@H](C)NC(=O)c2ccc3cc(C4CC4)ccc3c2)ccc1NS(C)(=O)=O [Example 22, 6-CYCLOPROPYLNAPHTHALENE-2-CARBOXYLIC ACID [(R)-1-(4-METHANESULFONYL-AMINO-3-METHYLPHENYL)ETHYL]AMIDE] | 3 nM |
| Cc1cc([C@@H](C)NC(=O)c2cc3ccc(Cl)cc3nc2C)ccc1NS(C)(=O)=O [Example 23, 7-CHLORO-2-METHYL-QUINOLINE-3-CARBOXYLIC ACID [(R)-1-(4-METHANESULFONYL-AMINO-3-METHYLPHENYL)ETHYL]AMIDE] | 379 nM |
| C[C@@H](NC(=O)c1cnc2cc(C(F)(F)F)ccc2c1)c1cc(F)c(NS(C)(=O)=O)c(F)c1 [Example 27, N-((1R)-1-{3,5-DIFLUORO-4-[(METHYLSULFONYL)AMINO]PHENYL}ETHYL)-7-(TRIFLUOROMETHYL)QUINOLINE-3-CARBOXAMIDE] | 105 nM |
| CC(=O)c1ccc2nc(C(=O)N[C@H](C)c3ccc(NS(C)(=O)=O)c(C)c3)ccc2c1 [Example 28, 6-ACETYL-N-((1R)-1-{3-METHYL-4-[(METHYLSULFONYL)AMINO]PHENYL}ETHYL)-QUINOLINE-2-CARBOXAMIDE] | 187 nM |
| Cc1cc([C@@H](C)NC(=O)c2cnc3ccc(C(C)(C)C)cc3c2)ccc1NS(C)(=O)=O [Example 29, 6-TERT-BUTYL-N-((1R)-1-{3-METHYL-4-[(METHYLSULFONYL)AMINO]PHENYL}ETHYL)-QUINOLINE-3-CARBOXAMIDE] | 231 nM |
| CC(C)c1ccc2cc(C(=O)N[C@H](C)c3cc(F)c(NS(C)(=O)=O)c(F)c3)ccc2n1 [Example 31, N-((1R)-1-{3,5-DIFLUORO-4-[(METHYLSULFONYL)AMINO]PHENYL}ETHYL)-2-ISOPROPYL-QUINOLINE-6-CARBOXAMIDE] | 47 nM |
| Cc1cc([C@@H](C)NC(=O)c2ccc3nc(C(F)(F)F)ccc3c2)c(F)cc1NS(C)(=O)=O [Example 32, N-((1R)-1-{2-FLUORO-5-METHYL-4-[(METHYLSULFONYL)AMINO]PHENYL}ETHYL)-2-(TRIFLUOROMETHYL)QUINOLINE-6-CARBOXAMIDE] | 6 nM |
| Cc1cc([C@@H](C)NC(=O)c2cnc3cc(C(C)(C)C)ccc3c2)ccc1NS(C)(=O)=O [Example 33, 7-TERT-BUTYL-N-((1R)-1-{3-METHYL-4-[(METHYLSULFONYL)AMINO]PHENYL}ETHYL)-QUINOLINE-3-CARBOXAMIDE] | 56 nM |
| C[C@@H](NC(=O)c1cnc2cc(C(F)(F)F)ccc2c1)c1ccc(NS(C)(=O)=O)c(F)c1 [Example 34, N-((1R)-1-{3-FLUORO-4-[(METHYLSULFONYL)AMINO]PHENYL}ETHYL)-7-(TRIFLUORO-METHYL)QUINOLINE-3-CARBOXAMIDE] | 26 nM |
| Cc1cc([C@@H](C)NC(=O)c2ccc3nc(C(C)C)ccc3c2)ccc1NS(C)(=O)=O [Example 35, 2-ISOPROPYL-N-((1R)-1-{3-METHYL-4-[(METHYLSULFONYL)AMINO]PHENYL}ETHYL)-QUINOLINE-6-CARBOXAMIDE] | 5 nM |
| CC(C)c1ccc2cc(C(=O)N[C@H](C)c3cc(F)c(NS(C)(=O)=O)c(F)c3)cnc2c1 [Example 39, N-((1R)-1-{3,5-DIFLUORO-4-[(METHYLSULFONYL)AMINO]PHENYL}ETHYL)-7-ISOPROPYL-QUINOLINE-3-CARBOXAMIDE] | 13 nM |
| Cc1cc([C@@H](C)NC(=O)c2ccc3cc(C(C)(C)C)ccc3c2)ncc1NS(C)(=O)=O [Example 40, 6-TERT-BUTYL-N-((1R)-1-{4-METHYL-5-[(METHYLSULFONYL)AMINO]PYRIDIN-2-YL}ETHYL)-2-NAPHTHAMIDE] | 31 nM |
| C[C@@H](NC(=O)c1cnc2cc(C(C)(C)C)ccc2c1)c1ccc(NS(C)(=O)=O)cc1 [Example 41, 7-TERT-BUTYL-N-((1R)-1-{4-[(METHYLSULFONYL)AMINO]PHENYL}ETHYL)QUINOLINE-3-CARBOXAMIDE] | 29 nM |
